Data from PubChem BioAssay AID2060487 (Molecular Pharmacology Branch, DTP, NCI, 2025).

Tested on: 997537-175-T-J1-PDC complex spheroid viability
Experiment: Anticancer human tumor 997537-175-T-J1-PDC patient-derived colon adenocarcinoma cell line growth inhibition [GQUAD]
Conditions: for IC50: curve of first compound; for viability, T/C: stronger effect = lower value
From the text: DNA G-quadruplex Stabilizer Agents in Combinations in Complex Spheroids
A high-throughput screen of multi-cell type tumor spheroids was designed to identify active combinations of DNA G-quadruplex stabilizer agents and targeted small molecules. Complex spheroids include a stromal component modeled by human endothelial cells (HUVEC) and fibroblasts modeled by human mesenchymal stem cells (MSCs). The concentration ranges selected for each drug and investigational agent were based upon clinically achievable concentrations if the clinical Cmax of the agent was known.
Compounds. The drugs and investigational agents: pidnarulex (CX-5461; NSC782164), APTO-253 (NSC789042), BRACO-19 (NSC847499), peposertib (NSC802822), ceralasertib (NSC780249), elimusertib (NSC800525), camonsertib (NSC841442), AZD-1390 (NSC803789), olaparib (NSC753686), talazoparib (NSC767125), ART-558 (NSC835418), sotorasib (NSC818433), MRTX-1133 (NSC836407), SN-38 (NSC673596), topotecan (NSC609699), etoposide (NSC141540), doxorubicin (NSC123127), gemcitabine (NSC613327), 5-fluorouracil (NSC19893), paclitaxel (NSC125973), vemurafenib (NSC761431), panobinostat (NSC761190), R-306465 (JNJ-16241199; NSC773264), adavosertib (NSC754352), TP-3654 (NSC805149), carboplatin (NSC241240), KSQ-4279 (NSC840948), and staurosporine (NSC755774) were obtained from the National Cancer Institute (NCI) Developmental Therapeutics Program Chemical Repository (34). The FDA-approved anticancer drug set is available from the NCI Developmental Therapeutics Program. […] The stock solutions were prepared in dimethyl sulfoxide (DMSO, Sigma-Aldrich, St. Louis, MO, cat. D2650) at 800-fold the tested concentration and stored at -70 degrees C prior to their use. All drugs and investigational agents were tested over a range starting from a high concentration at or near the clinical Cmax and decreasing in half-log increments. If the clinical Cmax for an agent had not been determined, the highest concentration tested was 10 microM.
2.3 Cell Culture. All cells were maintained in an incubator at 37 degrees C and 5% CO2 with 95% humidity. The PDC lines were cultured according to standard operating procedures established by the NCI PDMR. All PDCs were thawed and cultured in Matrigel-coated flasks prepared with a working solution of 1X Ham's F-12 nutrient mix, without supplementation (Invitrogen, cat. 11765054), 100 U/mL penicillin-streptomycin (Invitrogen, cat. 15140122), and 2.5% Matrigel (Corning Inc., cat. 354248) for the first three passages. The 857933-349-R-J2-PDC line was cultured in 6C/Colon 1B media, which includes advanced DMEM/F-12 (Thermo Fisher Scientific, cat. 12634028), 10 mM HEPES (Thermo Fisher Scientific, cat. 15630080), 1X GlutaMAX supplement (Thermo Fisher Scientific, cat. 35050061), 0.1 mg/mL primocin (InvivoGen, cat. ant-pm-2), 10% defined fetal bovine serum, heat inactivated (HyClone Laboratories Inc., cat. SH30070.03HI), 50% L-WRN conditioned media (ATCC, cat. CRL-3276), 1.25 mM N-Acetyl-L-cysteine (Sigma-Aldrich, cat. A9165), 10 mM nicotinamide (Sigma-Aldrich, cat. N0636), 1X B-27 supplement (Thermo Fisher Scientific, cat. 17504044), 1X N-2 supplement (Thermo Fisher Scientific, cat. 17502048), 10 microM Y-27632 dihydrochloride (Tocris Bioscience, cat. 1254), and 50 ng/mL human EGF recombinant protein (Thermo Fisher Scientific, cat. PHG0311). The 485176-168-R4-J1-PDC line was cultured in Panc media, which includes all 6C/Colon 1B media components plus 100 ng/mL human FGF-10 (Thermo Fisher Scientific, cat. 100-26), 500 nM SB-431542 (Selleckchem, cat. S1067), and gastrin (Tocris, cat. 3006).
[…]

[1] = second compound 0.0316 µM, first compound 0.0316 µM
[2] = second compound 0.0316 µM, first compound 0.316 µM
[3] = second compound 0.1 µM, first compound 0.0316 µM
[4] = second compound 0.1 µM, first compound 0.316 µM
[5] = second compound 0.316 µM, first compound 0.0316 µM
[6] = second compound 0.316 µM, first compound 0.316 µM
[7] = second compound 1 µM, first compound 0.0316 µM
[8] = second compound 1 µM, first compound 0.316 µM
[9] = second compound 3.16 µM, first compound 0.0316 µM
[10] = second compound 3.16 µM, first compound 0.316 µM
[11] = second compound 10 µM, first compound 0.0316 µM
[12] = second compound 10 µM, first compound 0.316 µM
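Further: spheroids exposed to the agents for 7 days.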
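Wherever viability, T/C is given: 100% = DMSO vehicle control viability.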

`Cn1ncnc1[C@H]1c2n[nH]c(=O)c3cc(F)cc(c23)N[C@@H]1c1ccc(F)cc1` + CN(C)c1ccc(Nc2c3ccc(NC(=O)CCN4CCCC4)cc3nc3cc(NC(=O)CCN4CCCC4)ccc23)cc1 gave an IC50 (second compound 0.0316 µM) greater than 0.316 µM, an IC50 (second compound 0.1 µM) greater than 0.316 µM and an IC50 (second compound 0.316 µM) greater than 0.316 µM. It also gave an IC50 (second compound 1 µM) greater than 0.316 µM, an IC50 (second compound 3.16 µM) greater than 0.316 µM and an IC50 (second compound 10 µM) greater than 0.316 µM. The viability, T/C (second compound 0.0316 µM, first compound 0.000999 µM) was 103%, the viability, T/C (second compound 0.0316 µM, first compound 0.00316 µM) was 88.8% and the viability, T/C (second compound 0.0316 µM, first compound 0.00999 µM) was 106%. The viability, T/C [1] was 66.6%, the viability, T/C (second compound 0.0316 µM, first compound 0.0999 µM) was 81.1% and the viability, T/C [2] was 68.1%. For the same compound, the viability, T/C (second compound 0.1 µM, first compound 0.000999 µM) was 100%, the viability, T/C (second compound 0.1 µM, first compound 0.00316 µM) was 97% and the viability, T/C (second compound 0.1 µM, first compound 0.00999 µM) was 91.9%. For the same compound, the viability, T/C [3] was 63%, the viability, T/C (second compound 0.1 µM, first compound 0.0999 µM) was 102% and the viability, T/C [4] was 82.1%. The viability, T/C (second compound 0.316 µM, first compound 0.000999 µM) was 94.8%, the viability, T/C (second compound 0.316 µM, first compound 0.00316 µM) was 102% and the viability, T/C (second compound 0.316 µM, first compound 0.00999 µM) was 95.2%. For the same compound, the viability, T/C [5] was 91.2%, the viability, T/C (second compound 0.316 µM, first compound 0.0999 µM) was 79.7% and the viability, T/C [6] was 86.8%. For the same compound, the viability, T/C (second compound 1 µM, first compound 0.000999 µM) was 84.7%, the viability, T/C (second compound 1 µM, first compound 0.00316 µM) was 70.5% and the viability, T/C (second compound 1 µM, first compound 0.00999 µM) was 79.2%. It also gave a viability, T/C [7] of 86.5%, a viability, T/C (second compound 1 µM, first compound 0.0999 µM) of 98.5% and a viability, T/C [8] of 79.6%. The viability, T/C (second compound 3.16 µM, first compound 0.000999 µM) was 69.4%, the viability, T/C (second compound 3.16 µM, first compound 0.00316 µM) was 83.6% and the viability, T/C (second compound 3.16 µM, first compound 0.00999 µM) was 94.6%. The viability, T/C [9] was 91.3%, the viability, T/C (second compound 3.16 µM, first compound 0.0999 µM) was 94.8% and the viability, T/C [10] was 85.9%. It also gave a viability, T/C (second compound 10 µM, first compound 0.000999 µM) of 77.1%, a viability, T/C (second compound 10 µM, first compound 0.00316 µM) of 87.5% and a viability, T/C (second compound 10 µM, first compound 0.00999 µM) of 91.2%. It also gave a viability, T/C [11] of 78.6%, a viability, T/C (second compound 10 µM, first compound 0.0999 µM) of 109% and a viability, T/C [12] of 104%.
`O=C(c1cc(Cc2n[nH]c(=O)c3ccccc23)ccc1F)N1CCN(C(=O)C2CC2)CC1` + CN(C)c1ccc(Nc2c3ccc(NC(=O)CCN4CCCC4)cc3nc3cc(NC(=O)CCN4CCCC4)ccc23)cc1 showed an IC50 (second compound 0.0316 µM) greater than 10 µM, an IC50 (second compound 0.1 µM) greater than 10 µM and an IC50 (second compound 0.316 µM) greater than 10 µM. It also gave an IC50 (second compound 1 µM) greater than 10 µM, an IC50 (second compound 3.16 µM) greater than 10 µM and an IC50 (second compound 10 µM) greater than 10 µM. The viability, T/C [1] was 106%, the viability, T/C (second compound 0.0316 µM, first compound 0.1 µM) was 89.7% and the viability, T/C [2] was 91.4%. It also gave a viability, T/C (second compound 0.0316 µM, first compound 1 µM) of 79.1%, a viability, T/C (second compound 0.0316 µM, first compound 3.16 µM) of 98.9% and a viability, T/C (second compound 0.0316 µM, first compound 10 µM) of 90.6%. For the same compound, the viability, T/C [3] was 92%, the viability, T/C (second compound 0.1 µM, first compound 0.1 µM) was 99.2% and the viability, T/C [4] was 97.2%. The viability, T/C (second compound 0.1 µM, first compound 1 µM) was 74.5%, the viability, T/C (second compound 0.1 µM, first compound 3.16 µM) was 91.4% and the viability, T/C (second compound 0.1 µM, first compound 10 µM) was 88.9%. It also gave a viability, T/C [5] of 88.3%, a viability, T/C (second compound 0.316 µM, first compound 0.1 µM) of 78.2% and a viability, T/C [6] of 90.4%. The viability, T/C (second compound 0.316 µM, first compound 1 µM) was 72%, the viability, T/C (second compound 0.316 µM, first compound 3.16 µM) was 97.3% and the viability, T/C (second compound 0.316 µM, first compound 10 µM) was 84.3%. For the same compound, the viability, T/C [7] was 85.7%, the viability, T/C (second compound 1 µM, first compound 0.1 µM) was 86% and the viability, T/C [8] was 77.6%. For the same compound, the viability, T/C (second compound 1 µM, first compound 1 µM) was 85.6%, the viability, T/C (second compound 1 µM, first compound 3.16 µM) was 92.4% and the viability, T/C (second compound 1 µM, first compound 10 µM) was 85.4%. The viability, T/C [9] was 82.8%, the viability, T/C (second compound 3.16 µM, first compound 0.1 µM) was 105% and the viability, T/C [10] was 88.7%. For the same compound, the viability, T/C (second compound 3.16 µM, first compound 1 µM) was 73.9%, the viability, T/C (second compound 3.16 µM, first compound 3.16 µM) was 85.8% and the viability, T/C (second compound 3.16 µM, first compound 10 µM) was 105%. The viability, T/C [11] was 74.9%, the viability, T/C (second compound 10 µM, first compound 0.1 µM) was 97.4% and the viability, T/C [12] was 95.2%. For the same compound, the viability, T/C (second compound 10 µM, first compound 1 µM) was 93.8%, the viability, T/C (second compound 10 µM, first compound 3.16 µM) was 102% and the viability, T/C (second compound 10 µM, first compound 10 µM) was 96%.
